Measured values taken from PubChem BioAssay (NCI).
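Dose response: 5 concentrations. Exposure: 48 h. Format: 96-well plates. Endpoint: linear interpolation; highest concentration if not reached. At the GI50, growth is halved. TGI: total growth inhibition.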

How the values were obtained:
Test in all cases: NCI tumour cell line growth inhibition, 48 h
CAKI-1 renal = tested on: CAKI-1 renal
SF-295 CNS = tested on: SF-295 CNS
ACHN renal = tested on: ACHN renal
NCI-H460 lung = tested on: NCI-H460 lung
K-562 leukemia = tested on: K-562 leukemia
MOLT-4 leukemia = tested on: MOLT-4 leukemia
SK-MEL-2 melanoma = tested on: SK-MEL-2 melanoma
NCI-H226 lung = tested on: NCI-H226 lung
CCRF-CEM leukemia = tested on: CCRF-CEM leukemia
MCF7 breast = tested on: MCF7 breast

SMILES | TGI (CAKI-1 renal) [µM] | TGI (SF-295 CNS) [µM] | TGI (ACHN renal) [µM] | TGI (NCI-H460 lung) [µM] | TGI (K-562 leukemia) [µM] | TGI (MOLT-4 leukemia) [µM] | TGI (SK-MEL-2 melanoma) [µM] | TGI (NCI-H226 lung) [µM] | TGI (CCRF-CEM leukemia) [µM] | GI50 (CAKI-1 renal) [µM] | GI50 (MCF7 breast) [µM] | TGI (MCF7 breast) [µM] | GI50 (SF-295 CNS) [µM] | GI50 (ACHN renal) [µM] | GI50 (NCI-H460 lung) [µM]
N#CC1CC2(C1)OCCS2 (centres undefined) | > 100 | > 100 | > 100 | > 100 | > 100 | > 100 | > 100 | > 100 | > 100 | – | – | – | – | – | –
O=C(c1ccccc1)C1OC12C(=O)Nc1ccccc12 (centres undefined) | 46 | 81.8 | > 100 | > 100 | 24.3 | 34.1 | > 100 | > 100 | 25.2 | – | – | – | – | – | –
COc1ccc(OC)c2c(C(=O)O)c(Cc3ccccc3)ccc12 | > 100 | > 100 | > 100 | > 100 | > 100 | > 100 | > 100 | > 100 | – | – | – | – | – | – | –
CC(=O)O[C@]12CCCCCC1C1(O)C(O)CCCC[C@H]12 (some centres undefined) | – | > 100 | > 100 | > 100 | > 100 | > 100 | > 100 | > 100 | > 100 | – | – | – | – | – | –
CC(CO)(CO)NCCCCn1ccc2c1C(=O)c1c(c(O)c3ccccc3c1O)C2=O | 30.4 | 26.6 | > 100 | 42.9 | – | – | – | – | – | 13.6 | 17.1 | 53.4 | 11.2 | 6.27 | 13.7
CCOC(=O)c1ccc(C)c(N=NN(C)C)c1 | > 100 | > 100 | > 100 | > 100 | > 100 | > 100 | > 100 | > 100 | > 100 | – | – | – | – | – | –
O=C1CSC(/C(=N/Nc2ccccc2)c2nc3ccccc3[nH]2)=N1 | 56.1 | 58.5 | > 100 | > 100 | > 100 | – | > 100 | 59.7 | 53.6 | – | – | – | – | – | –
O=C1[C@@H]2C(c3ccccc3F)=NO[C@@H]2C(=O)N1c1ccc(Cc2ccc(N3C(=O)[C@H]4C(c5ccccc5F)=NO[C@H]4C3=O)cc2)cc1 | > 100 | > 100 | > 100 | > 100 | > 100 | > 64.4 | > 100 | > 100 | > 70.8 | – | – | – | – | – | –
O=c1c2cc(Br)cc(Br)c2nc(CCCl)n1CCO | > 100 | > 100 | > 100 | > 100 | > 100 | > 100 | > 100 | > 100 | > 100 | – | – | – | – | – | –
COc1cc(/C=C(\C#N)c2ccccc2)cc(OC)c1 | > 100 | 73.7 | > 100 | > 100 | 79.7 | 58.6 | > 100 | > 100 | > 100 | – | – | – | – | – | –
C=CC/C=C/C/C=C/CCCCCCCc1cccc(O)c1C(=O)O | > 100 | > 100 | > 100 | > 100 | > 100 | > 100 | > 100 | – | > 100 | – | – | – | – | – | –
O=C1CC2CCCC23CC2(CCN13)OCCO2 (centres undefined) | > 100 | > 100 | > 100 | > 100 | > 100 | > 100 | > 100 | > 100 | > 100 | – | – | – | – | – | –
NC(=O)NCc1c(C(N)=O)ncn1Cc1ccccc1 | > 100 | > 100 | > 100 | > 100 | > 100 | > 100 | – | – | > 100 | – | – | – | – | – | –
CCN(CC)c1ccc(N=Nc2ccc(-c3nc4ccc[n+](C)c4s3)cc2)cc1 | 40.3 | 37 | – | 21.5 | > 100 | 24.6 | 25.5 | 26.1 | > 100 | – | – | – | – | – | –
CC(C)(C)c1cc(C(O)(C(F)(F)F)C(F)(F)F)c2c(c1)C(C(F)(F)F)(C(F)(F)F)OC(C(C)(C)C)N2 (centres undefined) | 8.45 | 8.04 | 10.2 | 9.01 | 11 | 5.34 | 10.3 | 10.2 | – | – | – | – | – | – | –
CCCCCCCCCCCC(=O)OCC1OC(OC)C(NC(=O)N(CCCl)N=O)C(O)C1O (centres undefined) | > 100 | 20.8 | 35.6 | 20.5 | 31.1 | 16.1 | 54.5 | 59.3 | 13.8 | – | – | – | – | – | –
OCc1ccc(C2CC(c3ccco3)=NN2c2ccccc2)o1 (centres undefined) | – | > 100 | > 100 | > 100 | > 100 | > 100 | > 100 | > 100 | > 100 | – | – | – | – | – | –
O=C(Nc1c(Cl)cc([N+](=O)[O-])cc1Cl)C(=O)C(C1OC(=O)c2ccccc21)[N+](=O)[O-] (centres undefined) | > 100 | > 100 | > 100 | > 100 | > 100 | > 100 | > 100 | > 100 | > 100 | – | – | – | – | – | –
